Data reported in patent US9303017B2, “2,5-disubstituted-pyridyl nicotinic ligands, and methods of use thereof” (Georgetown University, priority 2011, dated 2016).
Read-outs that look alike come from different tables or passages of the source.

Tests used:
[1] = target: α4β2 nAChR (Rattus norvegicus (Rat), UniProt P09483+P12390); experiment: biochemical; assay type: binding
Method: (§1) In Vitro Binding Affinities for nAChR Subtypes. […] To determine selectivities of these compounds in binding assays among the three predominant nAChR subtypes, α3β4, α4β2 and α7, the ratios of Ki values (α3β4/α4β2 and α7/α4β2) were determined.
(§2) Cell Lines and Cell Culture. The cell lines expressing defined rat nAChR subtypes were established previously by stably transfecting HEK 293 cells with rat nAChR subunit genes. The cell line expressing human α4β2 nAChRs, YXα4β2H1, was established recently. These cell lines were maintained in minimum essential medium (MEM) supplemented with 10% fetal bovine serum, 100 units/mL penicillin G, […] and selective antibiotics at 37° C. with 5% CO2 in a humidified incubator. Fetal bovine serum was provided by Gemini Bio-Products (Woodland, Calif.). Tissue culture medium and antibiotics were obtained from Invitrogen Corporation (Carlsbad, Calif.), unless otherwise stated.
(§3) Briefly, cultured cells at >80% confluence were removed from their flasks (80 cm^2) with a disposable cell scraper and placed in 10 mL of 50 mM Tris.HCl buffer (pH 7.4, 4° C.). The cell suspension was centrifuged at 10,000×g for 5 min and the pellet was collected. The cell pellet was then homogenized in 10 mL buffer with a polytron homogenizer and centrifuged at 36,000 g for 10 min at 4° C. The membrane pellet was resuspended in fresh buffer, and aliquots of the membrane preparation were used for binding assays. […] Bound and free ligands were separated by vacuum filtration through Whatman GF/C filters treated with 0.5% polyethylenimine. The filter-retained radioactivity was measured by liquid scintillation counting. Specific binding was defined as the difference between total binding and nonspecific binding. Data from competition binding assays were analyzed using Prism 5 (GraphPad Software, San Diego, Calif.).
(§4) Pharmacological Properties. We measured the in vitro binding affinities of the ligands for defined receptor subtypes (α2β2, α2β4, α3β2, α3β4, α4β2, α4β4, α6β2, α6β4, and α7) expressed in stably transfected cell lines. […] Rat forebrain homogenates were included to allow comparison between the heterologous and native α4β2 and α7 nAChRs. See Table 1 for binding affinity values (Ki) of the ligands at the three major nAChR subtypes (α3β4. α4β2 and α7).

[2] = target: α3β4 nAChR (Rattus norvegicus (Rat), UniProt P04757+P12392); experiment: [3H]-epibatidine competition binding, α3β4; conditions: Table 1; mean of 3 to 5 measurements
Method: as §1, §2, §3, §4

[3] = target: human α4β2 nAChRs (Homo sapiens (Human), UniProt P17787+P43681); experiment: 86Rb+ efflux assay (activation and desensitization), α4β2; assay type: cell-based; conditions: for Emax: read-out: Emax α4β2 nAChRs; for IC50: desensitization
Method: In Vitro Effects on nAChR Function. […] Their agonist activities were assessed by measuring stimulated ^86Rb^+ efflux from stably transfected cells, either expressing human α4β2 nAChRs or rat α3β4 receptors.
as §2
^86Rb^+ Efflux Assay. Functional properties of compounds at nAChRs expressed in the transfected cells were measured using ^86Rb^+ efflux assays as described previously. In brief, cells expressing human α4β2 or rat α3β4 nAChRs were plated into 24-well plates coated with poly-D-lysine. The plated cells were grown at 37° C. for 18 to 24 hour to reach 85-95% confluence. The cells were then incubated in growth medium (0.5 mL/well) containing ^86Rb^+ (2 μCi/mL) for 4 hour at 37° C. The loading mixture was then aspirated, and the cells were washed four times with 1 mL buffer (15 mM HEPES, 140 mM NaCl, 2 mM KCl, 1 mM MgSO4, 1.8 mM CaCl2, 11 mM Glucose, pH 7.4). One mL of buffer with or without compounds to be tested was then added to each well. After incubation for 2 min, the assay buffer was collected for measurements of ^86Rb^+ released from the cells. Cells were then lysed by adding 1 mL of 100 mM NaOH to each well, and the lysate was collected for determination of the amount of ^86Rb^+ that was in the cells at the end of the efflux assay. Radioactivity of assay samples and lysates was measured by liquid scintillation counting. Total loading (cpm) was calculated as the sum of the assay sample and the lysate of each well. The amount of ^86Rb^+ efflux was expressed as a percentage of ^86Rb^+ loaded. […] For obtaining EC50 and Emax values, stimulation curves were constructed in which 8 different concentrations of a ligand were included in the assay. […] EC50, Emax and IC50(10′) values were determined by nonlinear least-squares regression analyses (GraphPad, San Diego, Calif.).
The functional properties of the ligands were determined by ^86Rb^+ efflux assays in cells expressing α3β4 and α4β2 nAChR subtypes. The functional activity of each ligand was measured for its agonism, antagonism and desensitization ability. Agonist activity for each of the ligands was tested at eight different concentrations. […] The full concentration-effect curves generated potency (EC50) and efficacy (Emax) of each ligand. […] We tested each ligand for antagonist activity at eight concentrations. The potency (IC50(0′)) of each ligand as an antagonist was derived from the full concentration-effect curves.

[4] = target: α7 nAChR (Rattus norvegicus (Rat), UniProt Q05941); assay type: binding; conditions: Table 1; mean of 3 to 5 measurements
Method: as §1, §2, §3, §4

CCCCC#Cc1cnc(C)c(OC[C@@H]2CCN2)c1 [(S)-15, (S)-3-(azetidin-2-ylmethoxy)-5-(hex-1-ynyl)-2-methylpyridine]
Ki ([1]; Table 3 (Example 4), read-out: Ki α4β2): 12 nM | Ki Ratio α3β4/α4β2 ([1]; selectivity for α4β2 over α3β4): 19,000 | Ki Ratio α7/α4β2 ([1]; selectivity for α4β2 over α7): 7,800 | Ki [2]: 230000 nM | EC50 ([3]; agonist activity, ND = no significant stimulated efflux detected): 310 nM | Emax ([3]; agonist efficacy normalized to Emax of nicotine, ND = no significant stimulated efflux detected): < 20% | IC50 ([3]; 10 min pre-treatment, Table 3 (Example 4), read-out: IC50(10′) α4β2): 18 nM | IC50 ([3]; 10 min pre-incubation before 100 μM nicotine, Table 2, read-out: IC50(10′) α4β2 nAChRs): 180 nM | Emax [3]: 15% | Ki [4]: 93000 nM
